Laboratory results taken from patent publication US5478946A, “Guanidino compounds as regulators of nitric oxide synthase” (Abbott Laboratories, priority 1993, dated 1995).

Columns and labels:
[1] = target: T1, Type II NOS (RAW macrophage cell cytosol) (Mus musculus, UniProt P29477); test: [3H]-Arginine to [3H]-Citrulline conversion, RAW cell cytosol (Type II NOS); assay type: biochemical, murine; conditions: for inhibition at 100 µM / IC50: LPS induced; for IC50: read-out: Inhibition of [3H]-Citrulline Formation IC50, RAW Cell cytosol
T1 construct: cytosolic preparations from RAW 264.7 cells; endogenous in cells; host or cells: RAW 264.7 cells, LPS-induced for 16 hours
Text: (§1) The enzyme NO synthase produces EDRF/NO and citrulline from L-arginine (Bredt and Snyder, Proc. Nat'l. Acad. Sci. USA, 1989, 87: 682-5). The enzymatic generation of EDRF/NO is monitored by measuring the conversion of [^3 H]-L-arginine to [^3 H]-L-citrulline. An inhibitor of this specific enzymatic reaction lowers the conversion rate and, thus, the amount of [^3 H]-L-citrulline produced. Likewise, a compound acting as a substrate would compete with L-arginine and thereby lower the conversion rate.
(§2) The conversion of L-arginine to L-citrulline was assayed as reported previously (Bredt and Snyder, Proc. Nat'l Acad Sci USA, 1989, 87: 682-5) with minor modifications. Briefly, samples of partially purified NO synthase, 50-100 μg of protein or 20 μL of cytosol (alternatively cytosolic preparations from RAW 264.7 cells, a murine monocyte-macrophage cell line, induced for 16 hours with 10 μg/mL medium of Lipopolysaccharide (LPS), or partially purified (phosphocellulose column) type I isozyme from rat brain cerebellum, or partially purified isozyme III from bovine aortic endothelial cells (BAE cells)) were incubated for 20 minutes (3 minutes in the cases of purified enzyme preparations) at 25° C. in the presence of 10 μM L-[2,3-^3 H]arginine (55 Ci /mmol) (containing 34 nM (0.2 μCi)), 1 mM NADPH, and 2 Mm CaCl2 in a final volume of 100 μL. The reaction was stopped by adding 1 mL of stop buffer (2 mM EGTA, 2 mM EDTA 20 mM Hepes, pH 5.5). The total volume was then applied to a 1 mL Dowex AG 50 WX-8 column (Na^+ form, Bio-Rad) that had been pre-equilibrated with the stop buffer. L-[2,3-^3 H]Citrulline was eluted (2×) with 0.5 mL of stop buffer and radioactivity was determined by liquid scintillation counting.
(§3) The following Tables present data on the inhibition of [^3 H]-citrulline formation from [^3 H]-L-arginine by the compounds of the invention in various preparations representative of the isoforms of NOS, Types I, II, and III NOS as represented by rat brain cytosol, […] macrophage cell cytosol, and BAE homogenate preparation respectively.

[2] = target: T2, Type III NOS (BAE homogenate preparation) (Bos taurus, UniProt P29473); test: [3H]-Arginine to [3H]-Citrulline conversion, BAE homogenate preparation (Type III NOS); assay type: biochemical, bovine; conditions: for IC50: read-out: Inhibition of [3H]-Citrulline Formation IC50, BAE Preparation
T2 construct: partially purified isozyme III from bovine aortic endothelial cells (BAE cells); endogenous in cells; host or cells: bovine aortic endothelial (BAE) cells
Text: as §1, §2, §3

[3] = target: T3, Type I NOS (rat brain cytosol) (Rattus norvegicus, UniProt P29476); test: [3H]-Arginine to [3H]-Citrulline conversion, rat brain cytosol (Type I NOS); assay type: biochemical; conditions: for IC50: read-out: Inhibition of [3H]-Citrulline Formation IC50, Rat Brain Cytosol
T3 construct: type I isozyme from rat brain cerebellum; from tissue; host or cells: rat brain (cytosol; cerebellum, phosphocellulose-purified)
Text: as §1, §2, §3

[4] = read-out: Percent Inhibition of [3H]-Citrulline Formation, RAW Cell Cytosol
[5] = read-out: Percent Inhibition of [3H]-Citrulline Formation, Rat Brain Cytosol
[6] = read-out: Percent Inhibition of [3H]-Citrulline Formation, BAE Preparation

| inhibition at 100 µM [1, 4] [%] | IC50 [1] [µM] | IC50 [2] [µM] | inhibition at 100 µM [3, 5] [%] | IC50 [3] [µM] | inhibition at 100 µM [2, 6] [%] | inhibition at 10 µM ([1]; tested at 10 μM, read-out: Percent Inhibition of [3H]-Citrulline Formation, RAW Cell Cytosol) [%] | inhibition at 30 µM ([2]; tested at 30 μM, read-out: Percent Inhibition of [3H]-Citrulline Formation, BAE Preparation) [%] | inhibition at 30 µM ([3]; tested at 30 μM, read-out: Percent Inhibition of [3H]-Citrulline Formation, Rat Brain Cytosol) [%] | SMILES |
| --- | --- | --- | --- | --- | --- | --- | --- | --- | --- |
| 68 | 40 | > 100 | 35 | > 100 |  |  |  |  | CC(C)(C)OC(=O)N1[C@@H](/C=C/CNC(=N)N)COC1(C)C [Example 3, 3-(1,1-Dimethylethyl)-(S)-4-(3-guanidinopropen-1,E-yl)-2,2-dimethyl-3-oxazolidinecarboxylate] |
| 50 | 100 | > 100 |  |  | 22 |  |  |  | N=C(N)NC/C=C/[C@H](N)CO [Example 4, 1-Guanidirlyl-4(S)-amino-pent-2,E-ene-5-ol] |
| 97 | 20 | > 100 | 86 | 20 | 46 |  |  |  | CNC(=N)NC/C(C)=C/[C@H](N)CO [Example 27, N^G -Methylguanidinyl-4(S)-Amino-2-methyl-pent-2,E-ene-5-ol] |
| 9 | > 100 |  | 17 | > 100 |  |  |  |  | CNC(=N)NC/C=C/[C@@H]1COC(C)(C)N1C(=O)OC(C)(C)C [Example 18, 3-(1,1-Dimethylethyl)-(R)-4-(3-N^G -methylguanidinopropen-1,E-yl)-2,2-dimethyl-3-oxazolidinecarboxylate] |
| 47 | 100 |  | 51 | 80 |  |  |  |  | CNC(=N)NC/C=C/[C@H]1COC(C)(C)N1C(=O)OC(C)(C)C [Example 9, 3-(1,1-Dimethylethyl)-(S)-4-(3-N^G -methylguanidinoorooen-1,E-yl)-2.2-dimethyl-3-oxazolidinecarboxylate] |
| 20 | > 100 | > 100 | 80 | 40 | 14 |  |  |  | N=C(N)NC/C(=C/[C@H](N)CO)Cc1ccccc1 [Example 25, N^G -Guanidinyl-4(S)-Amino-2-benzyl-pent-2,E-ene-5-ol] |
| 45 | 100 |  | 27 | > 100 |  |  |  |  | C/C(=C\[C@H]1COC(C)(C)N1C(=O)OC(C)(C)C)CNC(=N)N [Example 20, 3-(1,1-Dimethylethyl)-(S)-4-(3-guanidino-2-methyl-propen-1,E-yl)-2,2-dimethyl-3-oxazolidinecarboxylate] |
| 6 | > 100 |  | 18 | > 100 |  |  |  |  | CNC(=N)NC/C=C/[C@@H](CO)NC(=O)OC(C)(C)C [Example 17, N^4, Boc-N^G -Methylguanidinyl-4(S)-Amino-pent-2,E-ene-5-ol] |
| 43 | > 100 | > 100 | 74 | 30 | 40 |  |  |  | CNC(=N)NC/C=C/[C@H](N)CO [Example 10, N^G -Methylguanidinyl-4(S)-Amino-pent-2 ,E-ene-5-ol] |
| 20 | > 100 |  | 35 | > 100 |  |  |  |  | CC(C)(C)OC(=O)N1[C@@H](/C=C(/CNC(=N)N)Cc2ccccc2)COC1(C)C [Example 24, 3-(1,1-Dimethylethyl)-(S)-4-(3,guanidino-2-benzyl-propen-1,E,yl)-2,2-dimethyl--oxazolidinecarboxylate] |

The next lines start with the compound.

| SMILES | inhibition at 100 µM [1, 4] [%] | IC50 [1] [µM] | IC50 [2] [µM] | inhibition at 100 µM [3, 5] [%] | IC50 [3] [µM] | inhibition at 100 µM [2, 6] [%] | inhibition at 10 µM ([1]; tested at 10 μM, read-out: Percent Inhibition of [3H]-Citrulline Formation, RAW Cell Cytosol) [%] | inhibition at 30 µM ([2]; tested at 30 μM, read-out: Percent Inhibition of [3H]-Citrulline Formation, BAE Preparation) [%] | inhibition at 30 µM ([3]; tested at 30 μM, read-out: Percent Inhibition of [3H]-Citrulline Formation, Rat Brain Cytosol) [%] |
| --- | --- | --- | --- | --- | --- | --- | --- | --- | --- |
| CNC(=N)NC/C=C/[C@@H](N)CO [Example 19, N-^G -Methylguanidinyl-4(R)-Amino-pent-2,E-ene,5-ol] | 27 | > 100 | > 100 | 77 | 35 | 0 |  |  |  |
| C/C(=C\[C@H]1COC(C)(C)N1C(=O)OC(C)(C)C)CNC(=N)N[N+](=O)[O-] [Example 14, 3-(1,1-Dimethylethyl)-(S)-4-(3-nitroguanidino-2-methyl-propen-1,E-yl)-2,2-dimethyl-3-oxazolidinecarboxylate] | 0 | > 100 | > 100 | 0 | > 100 |  |  |  |  |
| N=C(NO)NC/C=C/[C@H](N)CO [Example 8, N^G -Hydroxyguanidinyl-4(S)-amino-pent-2,E-ene-5-ol] | 13 | > 100 |  | 23 | > 100 |  |  |  |  |
| N=C(NN)NC/C=C/[C@H](N)CO [Example 6, N^G -Aminoguanidinyl-4(S)-amino-pent-2,E-ene-5-ol] |  | 22 | > 30 |  | > 30 |  | 46 | 0 | 0 |
| CC(C)(C)OC(=O)N1[C@@H](/C=C/CNC(=N)N[N+](=O)[O-])COC1(C)C [Example 1, 3-(1,1 -Dimethylethyl)-(S)-4-(3-N^G -nitroguanidinopropen-1, E-yl)-2,2-dimethyl-3-oxazolidinecarboxvlate] | 0 | > 100 | > 100 | 6 | > 100 |  |  |  |  |
| C/C(=C\[C@H](N)CO)CNC(=N)N[N+](=O)[O-] [Example 15, N^G -Nitroguanidinyl-4(S)-Amino-2-methyl-pent-2,E-ene-5-ol] | 66 | 40 | 100 | 90 | 10 | 50 |  |  |  |
| CC(C)(C)OC(=O)N1[C@H](/C=C/CNC(=N)N)COC1(C)C [Example 22, 3-(1,1-Dimethylethyl)-(R)-4-(3-guanidinopropen-1.E-yl)-2,2-dimethyl-3-oxazolidinecarboxylate] | 97 | < 100 | 100 | 70 | 40 | 50 |  |  |  |
| CC(C)(C)OC(=O)N1[C@@H](/C=C/CNC(=N)NO)COC1(C)C [Example 7, 3-(1,1-Dimethylethyl)-(S)-4-(3-N^G -hydroxyguanidinopropen-1,E-yl)-2.2-dimethyl-3-oxazolidinecarboxylate] | 17 | > 100 |  |  |  |  |  |  |  |
| CCNC(=N)NC/C=C/[C@H]1COC(C)(C)N1C(=O)OC(C)(C)C [Example 11, 3-(1,1-Dimethylethyl)-(S)-4-(3-N^G -ethylguanidinopropen-1,E-yl)-2,2-dimethyl-3-oxazolidinecarboxylate] | 41 | > 100 |  | 20 | > 100 |  |  |  |  |
| CCNC(=N)NC/C=C/[C@H](N)CO [Example 12, N^G Ethylguanidinyl-4(S)-Amino-pent-2,E-ene-5-ol] | 8 | > 100 | > 100 | 70 | 30 | 5 |  |  |  |
| C/C(=C\[C@H](N)CO)CNC(=N)N [Example 21, N^G -Guanidinyl-4(S)-Amino-2-methyl-pent-2,E-ene-5-ol] | 94 | 30 | 100 | 86 | 20 | 50 |  |  |  |
| N=C(NC/C=C/[C@H](N)CO)N[N+](=O)[O-] [Example 2, N^G -Nitroguanidinyl-4(S)-amino-pent-2,E-ene-5-ol] | 14 | > 100 | 80 | 80 | 40 |  |  |  |  |
